This is an account of results in patent US20170129916A1, “NOVEL BETULINIC PROLINE IMIDAZOLE DERIVATIVES AS HIV INHIBITORS” (HETERO RESEARCH FOUNDATION, priority 2014, published 2017).

The structures appear in SMILES notation.

In data set [1] the test system is HIV-1 strains, for e.g., 92HT599. In words: Antiviral activity: p24 estimation in MT-2 cells infected with HIV-1. It is filed as cell-based. The settings on record: Human immunodeficiency virus 1, MT2, MT-2 cells infected with HIV-1, p24, ~96 hours; for IC50: read-out: Antiviral activity IC50 (nM) Efficacy IC50. The procedure, abridged: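 MT-2 cells infected with HIV-1 (e.g. 92HT599), plated at 30,000 cells/well with compound (DMSO ≤1%) and incubated ~96 h. Supernatant p24 quantified by kit; percent inhibition relative to vehicle controls.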

Data set [2] is described as follows: in vitro.
Method: On day 1 calculate the number of cells required for the assay and seed 3×10^4 cells in 200 μl per well. Weigh the compound and dissolve it in DMSO to get 10 mM stock which is further diluted to 3 mM and 1 mM. The drugs from these stocks were added to plate to get final concentration of 100 μM, 30 μM and 10 μM. […] Incubate for 4 days in 5% CO2 incubator at 37° C. On day 4, 100 μl of medium was removed from each well without disturbing the cells. Add 10 μl of MTT reagent and incubate for 4 hours at 5% CO2 incubator at 37° C. for formation of crystals. Add 200 μl of 0.1N acidic isopropanol to dissolve the crystals and read the plate at 590 nm.
The nature of data set [3]: Single dose oral pharmacokinetic study. It is filed as in vivo. The settings on record: mouse, mice, 30 mg/kg, plasma; for AUC(0-t): read-out: Mice oral PK @30 mg/kg AUC 0-t; for Cmax: read-out: Mice oral PK @30 mg/kg Cmax. A digest of the protocol: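 Rats or mice received 30 mg/kg orally at 10 ml/kg dose volume. Retro-orbital blood was taken into K3 EDTA at defined intervals under light ether anesthesia and centrifuged to plasma. Plasma levels were measured by LC-MS-MS.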

Consider `C=C(C)[C@@H]1CC[C@]2(C(=O)N3CCC[C@H]3c3ncc(-c4ccc(C)c(F)c4)[nH]3)CC[C@]3(C)[C@H](CC[C@@H]4[C@@]5(C)CC[C@H](OC(=O)[C@H]6C[C@@H](C(=O)O)C6(C)C)C(C)(C)[C@@H]5CC[C@]43C)[C@@H]12` [Compound 2, (1R,3S)-3-((((1R,3aS,5aR,5 bR,7aR,9S,11aR,11bR,13aR,13bR)-3a-((S)-2-(5-(3-fluoro-4-methylphenyl)-1H-imidazol-2-yl)pyrrolidine-1-carbonyl)-5a,5b,8,8,11a-pentamethyl-1-(prop-1-en-2-yl)icosahydro-1H-cyclopenta[a]chrysen-9-yl)oxy)carbonyl)-2,2-dimethylcyclobutane-1-carboxylic acid], for which, in data set [1], the inhibition (in general, how much of the control response was suppressed) at 0.1 µM is 0% and the inhibition at 1 µM is 97%. Besides, in data set [2], the viability (in general, the share of living cells, or the viability signal relative to a control) at 4 days, 10 μM was 64%; the viability at 4 days, 30 μM worked out at 31%; the viability at 4 days, 100 μM amounted to 5%.

In the case of `C=C(C)[C@@H]1CC[C@]2(C(=O)N3CCC[C@H]3c3ncc(-c4ccc(OCC)cc4)[nH]3)CC[C@]3(C)[C@H](CC[C@@H]4[C@@]5(C)CC[C@H](OC(=O)[C@H]6C[C@@H](C(=O)O)C6(C)C)C(C)(C)[C@@H]5CC[C@]43C)[C@@H]12` [Compound 5, (1R,3S)-3-((((1R,3aS,5aR,5bR,7aR,9S,11aR,11bR,13aR,13bR)-3a-((S)-2-(5-(4-ethoxyphenyl)-1H-imidazol-2-yl)pyrrolidine-1-carbonyl)-5a,5b,8,8,11a-pentamethyl-1-(prop-1-en-2-yl)icosahydro-1H-cyclopenta[a]chrysen-9-yl)oxy)carbonyl)-2,2-dimethylcyclobutane-1-carboxylic acid], in data set [1], the inhibition at 0.1 µM was 0% and the inhibition at 1 µM is 100%. In data set [2], the viability at 4 days, 10 μM was 100%; the viability at 4 days, 30 μM is 100%; the viability at 4 days, 100 μM was found to be 98%.

With `C=C(C)[C@@H]1CC[C@]2(C(=O)N3CCC[C@H]3c3nc(-c4ccc(OC)c(F)c4)c[nH]3)CC[C@]3(C)[C@H](CC[C@@H]4[C@@]5(C)CC[C@H](OC(=O)[C@H]6C[C@@H](C(=O)O)C6(C)C)C(C)(C)[C@@H]5CC[C@]43C)[C@@H]12` [Compound 25, (1R,3S)-3-((((1R,3aS,5aR,5bR,7aR,9S,11aR,11bR,13aR,13bR)-3a-((S)-2-(4-(3-fluoro-4-methoxyphenyl)-1H-imidazol-2-yl)pyrrolidine-1-carbonyl)-5a,5b,8,8,11a-pentamethyl-1-(prop-1-en-2-yl)icosahydro-1H-cyclopenta[a]chrysen-9-yl)oxy)carbonyl)-2,2-dimethylcyclobutane-1-carboxylic acid], in data set [1], the inhibition at 0.1 µM was 89% and the inhibition at 1 µM is 99%. In data set [2], this compound registered a viability at 4 days, 10 μM of 65%; a viability at 4 days, 30 μM of 32%; a viability at 4 days, 100 μM of 11%.

Regarding `C=C(C)[C@@H]1CC[C@]2(C(=O)N3CCC[C@H]3c3ncc(-c4ccc(C)c(F)c4)[nH]3)CC[C@]3(C)[C@H](CC[C@@H]4[C@@]5(C)CC[C@H](OC(=O)CC(C)(C)C(=O)O)C(C)(C)[C@@H]5CC[C@]43C)[C@@H]12` [Compound 40], in data set [1], the inhibition at 0.1 µM was 29% and the inhibition at 1 µM was 99%. In data set [2], this compound gave a viability at 4 days, 10 μM of 80%; a viability at 4 days, 30 μM of 48%; a viability at 4 days, 100 μM of 25%.

In the case of `CC(C)(CC(=O)O[C@H]1CC[C@]2(C)[C@H]3CC[C@@H]4[C@H]5[C@H](C(C)(O)CO)CC[C@]5(C(=O)N5CCC[C@@H]5c5nc(-c6ccccc6)no5)CC[C@@]4(C)[C@]3(C)CC[C@H]2C1(C)C)C(=O)O` (stereo partly drawn) [Compound 42, 4-(((1R,3aS,5aR,5bR,7aR,9S,11aR,11bR,13aR,13bS)-1-(1,2-dihydroxypropan-2-yl)-5a,5b,8,8,11a-pentamethyl-3a-((R)-2-(3-phenyl-1,2,4-oxadiazol-5-yl)pyrrolidine-1-carbonyl)icosahydro-1H-cyclopenta[a]chrysen-9-yl)oxy)-2,2-dimethyl-4-oxobutanoic acid], in data set [1], the inhibition at 0.1 µM was 63% and the inhibition at 1 µM is 73%. In data set [2], the viability at 4 days, 0.1 nM stood at 94% and the viability at 4 days, 1 nM came to 94%.

On to `CC(C)(CC(=O)O)CC(=O)O[C@H]1CC[C@]2(C)[C@H]3CC[C@@H]4[C@H]5[C@H](C6(C)CC6)CC[C@]5(C(=O)N5CCC[C@H]5c5ncc(-c6cccc(F)c6)[nH]5)CC[C@@]4(C)[C@]3(C)CC[C@H]2C1(C)C` [Compound 64, 5-(((1R,3aS,5aR,5bR,7aR,9S,11aR,11bR,13aR,13bR)-3a-((S)-2-(5-(3-fluorophenyl)-1H-imidazol-2-yl)pyrrolidine-1-carbonyl)-5a,5b,8,8,11a-pentamethyl-1-(1-methylcyclopropyl)icosahydro-1H-cyclopenta[a]chrysen-9-yl)oxy)-3,3-dimethyl-5-oxopentanoic acid], for which, in data set [1], the IC50 (in general, the midpoint of a concentration-inhibition curve) was 14.6 nM. In data set [3], the AUC(0-t) stood at 105 µg·h/mL and the Cmax was 5250 ng/mL.

`CC(C)(CC(=O)O[C@H]1CC[C@]2(C)[C@H]3CC[C@@H]4[C@H]5[C@H](C6(C)CC6)CC[C@]5(C(=O)N5CCC[C@H]5c5ncc(-c6cccc(F)c6)[nH]5)CC[C@@]4(C)[C@]3(C)CC[C@H]2C1(C)C)C(=O)O` [Compound 65, 4-(((1R,3aS,5aR,5bR,7aR,9S,11aR,11bR,13aR,13bR)-3a-((S)-2-(5-(3-fluorophenyl)-1H-imidazol-2-yl)pyrrolidine-1-carbonyl)-5a,5b,8,8,11a-pentamethyl-1-(1-methylcyclopropyl)icosahydro-1H-cyclopenta[a]chrysen-9-yl)oxy)-2,2-dimethyl-4-oxobutanoic acid]: the IC50 in data set [1] was 15.7 nM. Also, in data set [3], the AUC(0-t) is 203 µg·h/mL and the Cmax came out at 13300 ng/mL.

`COCCOc1ccc(-c2cnc([C@@H]3CCCN3C(=O)[C@]34CC[C@@H](C5(C)CC5)[C@@H]3[C@H]3CC[C@@H]5[C@@]6(C)CC[C@H](OC(=O)CC(C)(C)C(=O)O)C(C)(C)[C@@H]6CC[C@@]5(C)[C@]3(C)CC4)[nH]2)cc1` [Compound 66]: the IC50 in data set [1] is 0.73 nM. In addition, in data set [3], the AUC(0-t) is 62.1 µg·h/mL and the Cmax is 6590 ng/mL.

On to `COCCO[C@@H]1C[C@@H](c2nc(-c3ccc(F)cc3)c[nH]2)N(C(=O)[C@]23CC[C@@H](C4(C)CC4)[C@@H]2[C@H]2CC[C@@H]4[C@@]5(C)CC[C@H](OC(=O)CC(C)(C)C(=O)O)C(C)(C)[C@@H]5CC[C@@]4(C)[C@]2(C)CC3)C1` [Compound 67, 4-(((1R,3aS,5aR,5bR,7aR,9S,11aR,11bR,13aR,13bR)-3a-((2S,4R)-2-(4-(4-fluorophenyl)-1H-imidazol-2-yl)-4-(2-methoxyethoxy)pyrrolidine-1-carbonyl)-5a,5b,8,8,11a-pentamethyl-1-(1-methylcyclopropyl)icosahydro-1H-cyclopenta[a]chrysen-9-yl)oxy)-2,2-dimethyl-4-oxobutanoic acid], for which, in data set [1], the half-maximal inhibitory concentration (IC50) was 0.44 nM. Also, in data set [3], the AUC(0-t) is 247 µg·h/mL and the Cmax came out at 12300 ng/mL.

`CC(C)(CC(=O)O[C@H]1CC[C@]2(C)[C@H]3CC[C@@H]4[C@H]5[C@H](C6(C)CC6)CC[C@]5(C(=O)N5CCC(c6ncc(-c7ccccc7)[nH]6)CC5)CC[C@@]4(C)[C@]3(C)CC[C@H]2C1(C)C)C(=O)O` [Compound 68, 2,2-dimethyl-4-oxo-4-(((1R,3aS,5aR,5bR,7aR,9S,11aR,11bR,13aR,13bR)-5a,5b,8,8,11a-pentamethyl-1-(1-methylcyclopropyl)-3a-(4-(5-phenyl-1H-imidazol-2-yl)piperidine-1-carbonyl)icosahydro-1H-cyclopenta[a]chrysen-9-yl)oxy)butanoic acid]: the IC50 in data set [1] is 12.8 nM. In data set [3], the AUC(0-t) stood at 23.5 µg·h/mL and the Cmax was found to be 2020 ng/mL.

For `CC(C)(CC(=O)O)CC(=O)O[C@H]1CC[C@]2(C)[C@H]3CC[C@@H]4[C@H]5[C@H](C6(C)CC6)CC[C@]5(C(=O)N5CCC[C@H]5c5ncc(-c6ccc(F)cc6)[nH]5)CC[C@@]4(C)[C@]3(C)CC[C@H]2C1(C)C` [Compound 70, 5-(((1R,3aS,5aR,5bR,7aR,9S,11aR,11bR,13aR,13bR)-3a-((S)-2-(5-(4-fluorophenyl)-1H-imidazol-2-yl)pyrrolidine-1-carbonyl)-5a,5b,8,8,11a-pentamethyl-1-(1-methylcyclopropyl)icosahydro-1H-cyclopenta[a]chrysen-9-yl)oxy)-3,3-dimethyl-5-oxopentanoic acid], in data set [1], the inhibition at 0.1 µM is 84% and the inhibition at 1 µM is 99%. Moreover, in data set [3], the AUC(0-t) amounted to 172 µg·h/mL and the Cmax was determined as 10000 ng/mL.
